Source: patent US6693217B2, “Antimalarial N,N′-substituted biguanides derived from hydroxylamines” (Jacobus Pharmaceutical Co., Inc., priority 2001, dated 2004)
“And” between values parts separate entries of the source, which are not always exact repeats. Equal entries are not always repeated. Structures can show the parent of a compound that is named as a salt. Marks after values point to notes of the source that are not given here.

Experiments:
[1] = Toxicity: testis weight/body weight after 106 days of drug treated feed; settings: for Decrease in testis weight/body weight: after 106 days of drug treated feed; for Mean values for testes: Left, % body wt / Mean values for testes: Right, % body wt.: male CD-1 mice, 8-mice groups, drug treated feed 106 days (300 ppm first 79 days, 600 ppm days 80-106); for Mean values for testes: Left, % body wt: control 0.30; for Mean values for testes: Right, % body wt.: control 0.31; for Testis damage / observable pathology: organs examined for pathology after 106 days of drug treated feed
Text: Male CD-1 mice were fed drug treated feed for 106 days. For the first 79 days the drug level was 300 ppm and then 600 ppm for days 80-106. The animals were then sacrificed and the organs were both weighed and examined for pathology.

[2] = tested on: Plasmodium berghei (KBG-173 strain); experiment: In vivo antimalarial activity, modified Thompson Test (Table II); parameters: species or system Charles River CD-1 mice; settings: bid on days 3, 4, 5; for Average days Survival: 31 day experiment; for 6 day Parasetemia: % of red blood cells infected
Protocol: In vivo^1 antimalarial activity was tested in male or female Charles River CD-1 mice that were 4-5 weeks old and weighed 20-25 g. They were housed in groups of 3 or 4 in standard plastic cages with wire tops, bed-o-cob® bedding, 12 hr/day of light, and maintained at 75° F. They were fed a standard Ralston Purina mouse chow and the cages and water bottles were changed twice a week. Test compounds were ground in a mortar and pestle and diluted with enough vehicle to give a volume of 10 mL/kg of mouse weight. The oral doses were prepared in 0.5% hydroxyethylcellulose-0.1% Tween-80. The amount of drug was calculated on the free base weight. The mice were infected intraperitoneally on day 0 with 5×10^4 erythrocytes parasitized with Plasmodium berghei (KBG-173 strain) from a donor mouse having a parasitemia between 5-10%. On days 3, 4, 5 the test compounds were administered bid, spaced 6 h apart, to mice. Smears were made from tail blood on day +6 and twice a week thereafter. The smears were stained with Geimsa and examined microscopically. Parasitemias are reported as the % of the red blood cells that are infected. On day 6 the (suppression of) parasitemias of treated animals may be compared to the parasitemias of infected non-treated controls, but these infected non-treated controls die on days 7-12. Activity was also measured by survival. Full activity is defined as all animals living at day 31. Partial activity is defined as days of increased survival versus the infected non-treated controls.
^1This in vivo model is a modification of the Thompson Test. For further description see Ager, A. L., Jr. Rodent Malaria Models. In Handbook of Experimental Pharmacology: Antimalarial Drugs. I. 68/1; Peters, W., Richards, W. H. G., Eds.: Springer-Verlag: Berlin, 1984, pp. 231-33.

Plasmodium berghei = experiment: Comparison of antimalarial activity of analogs of PS-15 in infected mice (Table III); assay type: in vivo; settings: orally bid on days 3, 4, 5 in HEC Tween, infection control 08.0
Text: Mice were infected with Plasmodium berghei on day 0 and the drugs were mixed in HEC Tween and given orally bid on days 3, 4, and 5 post infection. Blood films were taken on day 6 and twice weekly thereafter until day 30.

[3] = in vivo
[4] = tested on: drug-resistant clones of P. falciparum; settings: cited from earlier work; for In vitro activity relative to comparator: drug-resistant clones of P. falciparum
[5] = tested on: multidrug-resistant P. falciparum; settings: administered orally to Aotus monkeys; cited from earlier work
P. berghei = settings: administered orally to mice infected with P. berghei; cited from earlier work
[6] = cited from earlier work

Row | Compound | Decrease in testis weight/body weight [1] | Mean values for testes: Left, % body wt [1] | Mean values for testes: Right, % body wt. [1] | Testis damage / observable pathology [1] | Average days Survival ([2]; 16 mg/kg oral) | 6 day Parasetemia ([2]; 16 mg/kg oral) | Average days Survival ([2]; 32 mg/kg oral) | 6 day Parasetemia ([2]; 32 mg/kg oral) | Average days Survival ([2]; 64 mg/kg oral) | 6 day Parasetemia ([2]; 64 mg/kg oral) | AVG. DAY OF DEATH (Plasmodium berghei; 16 MK/KG/DAY) | AVG. DAY OF DEATH (Plasmodium berghei; 32 MK/KG/DAY) | AVG. DAY OF DEATH (Plasmodium berghei; 64 MK/KG/DAY) | In vitro activity relative to comparator [4] | also measured
1 | CC(C)NC(=N)NC(=N)NOCCCOc1ccc(Cl)cc1 [PS-33, 1-[3-(4-chlorophenoxy)propyloxy]-5-isopropylbiguanide(hemisuccinate)] | no decrease in testis weight/body weight | 0.27 % body wt | 0.36 % body wt. | minimal to no observable pathology | 14.1 days and 15.1 days and 14.6 days and 13.6 days | 1.8% and 2.7% and 1.94% and 1.1% | 21.8 days and 15.9 days and 17.8 days and 12.8 days | 0.01% and 0% and 0.006% | >31* days and >24.7 days | 0% | 16.0 days | 19.5 days | 29.0 days |  | 
2 | CC(C)NC(=N)NC(=N)NOCCCOc1cc(Cl)c(Cl)cc1Cl [PS-15, N-[3-(2,4,5-trichlorophenoxy)propyloxy]-N′-(1-methylethyl)imidodicarbonimidediamide hydrochloride, reference compound] |  | 0.21 % body wt | 0.22 % body wt. | Testis damage was found |  |  |  |  |  | 0% | 15.1 days | 15.7 days | 17.0 days | more active than proguanil | Average days Survival ([2]; 16 mg/kg oral, hydrochloride): 14.1 days and 15.1 days and 14.6 days and 13.6 days; 6 day Parasetemia ([2]; 16 mg/kg oral, hydrochloride): 1.8% and 2.7% and 1.94% and 1.1%; Average days Survival ([2]; 32 mg/kg oral, hydrochloride): 15.9 days and 17.8 days and 12.8 days and 21.8 days; 6 day Parasetemia ([2]; 32 mg/kg oral, hydrochloride): 0% and 0.006% and 0.01%; Average days Survival ([2]; 64 mg/kg oral, hydrochloride): >24.7 days and >31* days; Testicular toxicity [3]: caused testicular toxicity; Activity against drug-resistant Plasmodium falciparum ([4]; as described by Canfield et al. 1993): significant activity; Cross-resistance with other inhibitors of DHFR ([4]; versus pyrimethamine and cycloguanil): not cross-resistant; Activity relative to proguanil or WR99210 [5]: more active than either proquanil or WR99210; Activity relative to proguanil (P. berghei): more active; Toxicity relative to proguanil (P. berghei): less toxic than proguanil; Metabolism in vivo [6]: metabolized in vivo to WR99210
3 | CC(C)NC(=N)NC(=N)NOCCCOc1ccc(Cl)cc1Cl [2,4-Dichloro] |  | 0.19 % body wt | 0.20 % body wt. |  |  |  |  |  |  |  |  |  |  |  | 
4 | CC1(C)N=C(N)N=C(N)N1OCCCOc1cc(Cl)c(Cl)cc1Cl [WR99210] |  |  |  |  |  |  |  |  |  |  |  |  |  | ten thousand times more active than the proquanil metabolite cycloguanil | 
5 | CC(C)NC(=N)NC(=N)NOCCCOc1ccc(Cl)c(Cl)c1 [PS-26, 1-[3-(3,4-dichlorophenoxy)propyloxy]-5-isopropylbiguanide(hemisuccinate)] | no decrease in testis weight/body weight | 0.29 % body wt | 0.32 % body wt. | minimal to no observable pathology | 15.7 days and 16.6 days and 16.0 days | 0% and 0.006% | >29.3 days and >31 days | 0% | >31* days | 0% | 16.6 days | 15.5 days |  |  | 
6 | CC(C)NC(=N)NC(=N)NOCCCOc1ccc(F)c(F)c1 [3,4-Difluoro] |  | 0.21 % body wt | 0.23 % body wt. |  |  |  |  |  |  |  |  |  |  |  | 
